For 20 compounds, IC50 and GI50 results are on record in patent publication US11566017B2, “Dihydroquinazolinone compound or pharmacologically acceptable salt, and cell growth inhibitor” (RIKEN, priority 2017, dated 2023).

The target in one test is T1, tankyrase 1 (TNKS1) (Homo sapiens, UniProt O95271).
T1 construct: tankyrase 1 (1,024-1,327aa, SAM+PARP); made in house; host or cells: cell-free protein expression system
Kind of test: Tankyrase inhibitory activity test (ELISA, auto-poly(ADP-ribosyl)ation), tankyrase 1. The settings on record: Flag tagged tankyrase 1 (1,024-1,327aa, SAM+PARP); read-out: TNKS1 (inhibitory activity against tankyrase 1, IC50). It is filed as biochemical. As to the method:
(§1) The enzymatic activity of tankyrase 1 and the enzymatic activity of tankyrase 2 were measured by the ELISA method based on assessment of auto-poly(ADP-ribosyl)ation to evaluate the tankyrase inhibitory activity of the compound prepared in each of Examples (test compound) (inhibitory activity against tankyrase 1 (TNKS1) and inhibitory activity against tankyrase 2 (TNKS2)). First, Flag tagged tankyrase 1 (1,024-1,327aa, SAM+PARP) and tankyrase 2 (613-1,116aa, ANK5+SAM+PARP) were synthesized with a cell-free protein expression system, and diluted with a Tris buffer solution (50 mM Tris-HCl (pH 8.0), 150 mM NaCl, 10% glycerol). 50 μL of the diluted tankyrase 1 or tankyrase 2 was added to a plate with an anti-FLAG M2 monoclonal antibody immobilized thereon (Anti-FLAG High-Sensitivity M2-Coated Plate) (Sigma-Aldrich), and the plate was left standing overnight at 4° C. Thereafter, the plate was washed four times with a PBS (PBST) buffer containing 0.1% Triton X-100. For Example 84, the Anti-FLAG High-Sensitivity M2-Coated Plate was replaced by an immunoplate (Thermo Fisher Scientific), tankyrase 1 or tankyrase 2 was immobilized on the immunoplate, and the immunoplate was then blocked with Blocking One (nacalai tesque), then washed with a PBS (PBST) buffer, and used as the following plate.
(§2) Subsequently, the test compound diluted with an assay buffer (50 mM Tris-HCl (pH 8.0), 4 mM MgCl2, 0.2 mM DTT) (DMSO was used as a control) was added to each well of the plate, and the plate was left standing at room temperature for 10 minutes. Thereafter, a biotin-labeled NAD solution (225 μM NAD, 25 μM 6-Biotin-17-NAD (Travigen, Inc.)) was added and mixed as a donor substrate, and the mixture was reacted at 30° C. for 45 minutes. To blank wells was added distilled water instead of the biotin-labeled NAD solution. After the reaction, the plate was washed with a PBST buffer four times. Thereafter, HRP (horseradish peroxidase)-labeled streptavidin (Travigen, Inc.) was diluted with a PBS buffer by 1,000 times, and added to each well, and the mixture was reacted at room temperature for 20 minutes. The plate was washed with a PBST buffer four times, a chemiluminescent substrate solution TACS-Sapphire (Travigen, Inc.) was then added to each well, the mixture was reacted at room temperature for 20 minutes, and the chemiluminescence intensity was measured using a chemiluminescence measuring apparatus. For Example 84, the streptavidin was diluted by 5,000 times, the chemiluminescent substrate solution TACS-Sapphire was replaced by an ELISA POD substrate TMB solution easy (nacalai tesque), the mixture was reacted at room temperature for 30 minutes, and the chemiluminescence intensity was measured using a chemiluminescence measuring apparatus.
(§3) The residual enzymatic activity in the presence of the test compound was determined from the following expression. On the basis of the residual enzymatic activity at each of multiple concentrations of the test compound, the enzyme inhibitory activity was calculated in terms of a 50%-inhibition concentration (IC50 value) using data analysis software Origin (LightStone Corp.). Residual activity (%)={(chemiluminescence intensity with test compound added)−(chemiluminescence intensity of blank)}/{(chemiluminescence intensity of control)−(chemiluminescence intensity of blank)}
On the technique in general: ELISA stands for enzyme-linked immunosorbent assay.

Another test addresses T2, tankyrase 2 (TNKS2) (Homo sapiens, UniProt Q9H2K2).
T2 construct: tankyrase 2 (613-1,116aa, ANK5+SAM+PARP); made in house; host or cells: cell-free protein expression system
Kind of test: Tankyrase inhibitory activity test (ELISA, auto-poly(ADP-ribosyl)ation), tankyrase 2. It is filed as biochemical. The conditions noted are these: Flag tagged tankyrase 2 (613-1,116aa, ANK5+SAM+PARP); read-out: TNKS2 (inhibitory activity against tankyrase 2, IC50). As to the method: as §1, §2, §3

The test system of test [1] is human colorectal cancer cell line COLO-320DM. The test is described as follows: Cell proliferation inhibitory activity test (Celltiter-Glo). The class given is cell-based. The settings on record: COLO-320DM cells, 96 hours. How it is done:
The cell proliferation inhibitory activity of the compound, which had been prepared in each of Examples, against the human colorectal cancer cell line COLO-320DM was evaluated by Celltiter-Glo Luminescent Cell Viability Assay (Promega Corporation; G7573). COLO-320DM cells were cultured in RPMI-1640 medium containing 2 mM glutamine (Wako Pure Chemical Industries, Ltd; 189-02025) supplemented with 10% fetal bovine serum. The cultured cells were washed with PBS, and then dissociated with trypsin/EDTA, and a cell solution with 3×10^4 cells/mL was prepared.
Subsequently, the cell solution was seeded in a 96-well microplate (Thermo/Nunc Company; 136101) in an amount of 70 μL per well, and cultured overnight under the condition of 37° C. and 5% CO2. Next day, a test compound solution obtained by diluting the test compound (DMSO solution) with a cell culture medium (final concentration of DMSO was 1%) was added in an amount of 10 μL per well, and the mixture was reacted under the condition of 37° C. and 5% CO2 for 96 hours (a 1% DMSO solution was used as a control). Thereafter, a Celltiter-GloLuminescent Cell Viability Assay reagent (Promega Corporation; G7573) was added in an amount of 80 μL per well, the mixture was stirred with a shaker for 2 minutes while light was blocked with an aluminum foil, and the mixture was incubated at room temperature for 10 minutes.
Thereafter, a luminescence signal was measured with a luminometer (Biotech Company; Synergy). The ratio of cell proliferation in each compound addition group to cell proliferation in a control group containing no test compound solution, where cell proliferation in the control group is 100%, was calculated and the value of a compound concentration necessary for suppressing the amount of residual cells to 50% of that in the control (GI50) was calculated as the cytostatic activity. […] An unevaluated test compound was designated as “NT”.
For orientation: Cellular ATP, detected with luciferase, serves as a proxy for viable cell number.

T1 sequence (O95271 1024-1327): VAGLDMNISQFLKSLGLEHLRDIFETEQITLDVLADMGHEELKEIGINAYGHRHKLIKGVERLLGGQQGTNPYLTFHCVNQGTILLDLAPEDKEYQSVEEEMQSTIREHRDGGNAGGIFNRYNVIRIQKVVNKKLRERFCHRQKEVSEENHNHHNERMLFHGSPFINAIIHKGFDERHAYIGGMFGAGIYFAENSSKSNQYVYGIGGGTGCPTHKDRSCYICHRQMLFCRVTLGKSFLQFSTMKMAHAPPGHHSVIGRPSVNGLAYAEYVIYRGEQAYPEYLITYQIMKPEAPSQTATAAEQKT

Turning to `COC(=O)c1ccc(-c2n[nH]cc2C2NC(=O)c3ccccc3N2C)cc1` (stereo not drawn) [Example 1, Methyl 4-[4-(1-methyl-4-oxo-2,3-dihydroquinazolin-2-yl)-1H-pyrazol-5-yl]benzoate], the IC50 at tankyrase 1 (TNKS1) lay within 20 to 50 nM; at tankyrase 2 (TNKS2), 5 to 20 nM.

As for `CN1c2ccccc2C(=O)NC1c1c[nH]nc1-c1ccc(C(=O)O)cc1` (stereo not drawn) [Example 2, 4-[4-(1-Methyl-4-oxo-2,3-dihydroquinazolin-2-yl)-1H-pyrazol-5-yl]benzoic Acid], the half-maximal inhibitory concentration (IC50) at tankyrase 1 (TNKS1) and at tankyrase 2 (TNKS2) was under 5 nM each time.

Take `CN1c2ccccc2C(=O)NC1c1c[nH]nc1-c1ccc(N)cc1` (stereo not drawn) [Example 3, 2-[3-(4-Aminophenyl)-1H-pyrazol-4-yl]-1-methyl-2,3-dihydroquinazolin-4-one]: the concentration for half-maximal inhibition (IC50) at tankyrase 1 (TNKS1) and on tankyrase 2 (TNKS2) was 5 to 20 nM throughout. For the same compound, the GI50 in test [1] is at least 10000 nM.

`CN1c2ccccc2C(=O)NC1c1c[nH]nc1-c1ccc(NC(=O)c2ccccc2)cc1` (stereo not drawn) [Example 4, N-[4-[4-(1-Methyl-4-oxo-2,3-dihydroquinazolin-2-yl)-1H-pirazol-3-yl]phenyl]benzamide]: the IC50 on tankyrase 1 (TNKS1) was 5 to 20 nM; at tankyrase 2 (TNKS2) it was under 5 nM. Moreover, the GI50 in test [1] was at least 10000 nM.

`CN1c2ccccc2C(=O)NC1c1c[nH]nc1-c1cccc(NC(=O)Nc2ccccc2)c1` (stereo not drawn) [Example 5, 1-[3-[4-(1-Methyl-4-oxo-2,3-dihydroquinazolin-2-yl)-1H-pyrazol-3-yl]phenyl]-3-phenylurea]: the concentration for half-maximal inhibition (IC50) at tankyrase 1 (TNKS1) and at tankyrase 2 (TNKS2) was 5 to 20 nM throughout. In addition, the 50% growth inhibitory concentration (GI50) in test [1] is at least 10000 nM.

With `CN1CCN(c2ccc(-c3ccc(-c4n[nH]cc4C4NC(=O)c5ccccc5N4C)cc3)cc2)CC1` (stereo not drawn) [Example 6, 1-Methyl-2-[5-[4-[4-(4-methylpiperazin-1-yl)phenyl]phenyl]-1H-pirazol-4-yl]-2,3-dihydroquinazolin-4-one], the IC50 on tankyrase 1 (TNKS1) fell in the range of 20 to 50 nM; on tankyrase 2 (TNKS2), 5 to 20 nM. Also, the concentration for 50% growth inhibition (GI50) in test [1] lay in the range of 1000 to 10000 nM.

Take `CN1c2ccccc2C(=O)NC1c1n[nH]nc1-c1ccc(-c2ccc(N3CCOCC3)cc2)cc1` (stereo not drawn) [Example 7, 1-Methyl-2-[4-[4-(4-morpholin-4-ylphenyl)phenyl]-2H-1,2,3-triazol-5-yl]-2,3-dihydroquinazolin-4-one]: the IC50 at tankyrase 1 (TNKS1) fell in the range of 20 to 50 nM; on tankyrase 2 (TNKS2), 5 to 20 nM. Also, in test [1], the GI50 is at least 10000 nM.

As for `CCOc1ccc(-c2n[nH]nc2[C@H]2NC(=O)c3cccc(C)c3N2)cc1` [Example 8, (2R)-2-[5-(4-Ethoxyphenyl)-2H-1,2,3-triazol-4-yl]-8-methyl-2,3-dihydro-1H-quinazolin-4-one], the IC50 on tankyrase 1 (TNKS1) and on tankyrase 2 (TNKS2) was under 5 nM in each case. Besides, the GI50 in test [1] was under 1000 nM.

Take `O=C1NC(c2c[nH]nc2-c2ccccc2)Nc2ccccc21` (stereo not drawn) [Example 9, 2-(3-Phenyl-1H-pyrazol-4-yl)-2,3-dihydro-1H-quinazolin-4-one]: the half-inhibitory concentration (IC50) on tankyrase 1 (TNKS1) and on tankyrase 2 (TNKS2) was 20 to 50 nM in each case.

`CN1c2ccccc2C(=O)NC1c1c[nH]nc1-c1ccccc1` (stereo not drawn) [Example 10, 1-Methyl-2-(3-phenyl-1H-pyrazol-4-yl)-2,3-dihydroquinazolin-4-one]: the values for the half-inhibitory concentration (IC50) on tankyrase 1 (TNKS1) and on tankyrase 2 (TNKS2) were 5 to 20 nM and under 5 nM, respectively. Moreover, in test [1], the GI50 was at least 10000 nM.

Regarding `CN1c2ccccc2C(=O)NC1c1c[nH]nc1-c1ccc(OCc2ccccc2)cc1` (stereo not drawn) [Example 11, 1-Methyl-2-[3-(4-phenylmethoxyphenyl)-1H-pyrazol-4-yl]-2,3-dihydroquinazolin-4-one], the figures for the IC50 on tankyrase 1 (TNKS1) and at tankyrase 2 (TNKS2) were 5 to 20 nM and under 5 nM, respectively. Also, the GI50 in test [1] was at least 10000 nM.

With `CCN1c2ccccc2C(=O)NC1c1c[nH]nc1-c1ccc(OC)cc1` (stereo not drawn) [Example 12, 1-Ethyl-2-[3-(4-methoxyphenyl)-1H-pyrazol-4-yl]-2,3-dihydroquinazolin-4-one], the values for the half-maximal inhibitory concentration (IC50) at tankyrase 1 (TNKS1) and on tankyrase 2 (TNKS2) were 20 to 50 nM and 5 to 20 nM, respectively. Moreover, the GI50 in test [1] lay in the range of 1000 to 10000 nM.

Consider `CCN1c2ccccc2C(=O)NC1c1c[nH]nc1-c1ccc(C(=O)OC)cc1` (stereo not drawn) [Example 13, Methyl 4-[4-(1-ethyl-4-oxo-2,3-dihydroquinazolin-2-yl)-1H-pyrazol-3-yl]benzoate], for which the IC50 at tankyrase 1 (TNKS1) and at tankyrase 2 (TNKS2) was 20 to 50 nM throughout. For the same compound, the 50% growth inhibitory concentration (GI50) in test [1] is at least 10000 nM.

With `COc1ccc(-c2n[nH]cc2C2NC(=O)c3ccccc3N2CC2CC2)cc1` (stereo not drawn) [Example 14, 1-(Cyclopropylmethyl)-2-[5-(4-methoxyphenyl)-1H-pyrazol-4-yl]-2,3-dihydroquinazolin-4-one], the IC50 at tankyrase 1 (TNKS1) and on tankyrase 2 (TNKS2) was 20 to 50 nM in each case. Further, the 50% growth inhibitory concentration (GI50) in test [1] is at least 10000 nM.

In the case of `COc1cccc(-c2n[nH]cc2C2NC(=O)c3ccccc3N2C)c1` (stereo not drawn) [Example 15, 2-[5-(3-Methoxyphenyl)-1H-pyrazol-4-yl]-1-methyl-2,3-dihydroquinazolin-4-one], the IC50 fell in the range of 5 to 20 nM at tankyrase 1 (TNKS1) and 20 to 50 nM on tankyrase 2 (TNKS2). For the same compound, in test [1], the GI50 was at least 10000 nM.

For `CN1c2ccccc2C(=O)NC1c1c[nH]nc1-c1ccc([N+](=O)[O-])cc1` (stereo not drawn) [Example 16, 1-Methyl-2-[3-(4-nitrophenyl)-1H-pyrazol-4-yl]-2,3-dihydroquinazolin-4-one], the concentration for half-maximal inhibition (IC50) on tankyrase 1 (TNKS1) and on tankyrase 2 (TNKS2) was 20 to 50 nM each time. In addition, the GI50 in test [1] is at least 10000 nM.

Take `CN1c2ccccc2C(=O)NC1c1c[nH]nc1-c1ccc(-c2ccccc2)cc1` (stereo not drawn) [Example 17, 1-Methyl-2-[3-(4-phenylphenyl)-1H-pyrazol-4-yl]-2,3-dihydroquinazolin-4-one]: the figures for the IC50 at tankyrase 1 (TNKS1) and on tankyrase 2 (TNKS2) were 20 to 50 nM and under 5 nM, respectively. In test [1], the concentration for 50% growth inhibition (GI50) is at least 10000 nM.

As for `CN1c2ccccc2C(=O)NC1c1c[nH]nc1-c1ccc(Oc2ccccc2)cc1` (stereo not drawn) [Example 18, 1-Methyl-2-[3-(4-phenoxyphenyl)-1H-pyrazol-4-yl]-2,3-dihydroquinazolin-4-one], the IC50 on tankyrase 1 (TNKS1) is 20 to 50 nM; at tankyrase 2 (TNKS2), under 5 nM. The GI50 in test [1] is at least 10000 nM.

Regarding `CN1c2ccccc2C(=O)NC1c1c[nH]nc1-c1ccc(I)cc1` (stereo not drawn) [Example 19, 2-[3-(4-Iodophenyl)-1H-pyrazol-4-yl]-1-methyl-2,3-dihydroquinazolin-4-one], the IC50 on tankyrase 1 (TNKS1) is 5 to 20 nM; on tankyrase 2 (TNKS2), under 5 nM. Further, the 50% growth inhibitory concentration (GI50) in test [1] is at least 10000 nM.

As for `CN1c2ccccc2C(=O)NC1c1c[nH]nc1-c1cccc(Br)c1` (stereo not drawn) [Example 20, 2-[3-(3-Bromophenyl)-1H-pyrazol-4-yl]-1-methyl-2,3-dihydroquinazolin-4-one], the values for the IC50 on tankyrase 1 (TNKS1) and on tankyrase 2 (TNKS2) were 20 to 50 nM and 5 to 20 nM, respectively. Besides, the GI50 in test [1] was at least 10000 nM.

The term IC50 denotes the concentration that inhibits the measured activity by half. A word on the GI50: it is the concentration giving 50% growth inhibition.
